In patent publication US20130260025A1, “Group 2 Imidazolate Formulations for Direct Liquid Injection” (AIR PRODUCTS AND CHEMICALS, INC., priority 2012, published 2013):

Columns and labels:
[1] = Solubility of strontium imidazolate adducts in cyclooctane
Protocol: Solubility was determined by taking a weighed amount of solvent at room temperature, incrementally adding metal complex with mixing until not more could be dissolved then reweighing the resultant solution to permit the weight percentage of metal complex dissolved to be calculated. A fixed volume of the solution was then weighed. […] The moles of metal complex is then divided by the volume of weighed solution in liters to yield the molarity of the solution.

[2] = Solubility of strontium imidazolate adducts in mesitylene; assay type: physicochemical
Text: A fixed volume of the solution was then weighed. […] […].

[3] = Thermogravimetric analysis (TGA)/differential scanning calorimetry (DSC); assay type: physicochemical
Protocol: Thermogravimetric analysis (TGA) of the complexes listed in Tables 1 and 2 were conducted whereby samples were suspended in a microbalance pan under a steady stream of nitrogen while being heated under a constant rate. Weight loss is measured as a function of temperature/time while a differential scanning calorimeter monitors exotherms (decomposition) or endotherms (phase change/melting or evaporative cooling).

[4] = saturated solution in cyclooctane, room temperature
[5] = saturated solution in mesitylene, room temperature

For `CC(C)(C)c1nc(C(C)(C)C)c(C(C)(C)C)[n-]1.CC(C)(C)c1nc(C(C)(C)C)c(C(C)(C)C)[n-]1.COC(C)OC.[Sr+2]` [Strontium bis(2,4,5-tri-tert-butylimidazolate)(1,1-dimethoxyethane)], the “Molarity of strontium complex” value [1, 4] was 0.03 M, the “Wt % of strontium complex” value [1, 4] was 2.1 Wt % and the “Molarity of strontium complex” value [2, 5] was 0.13 M. For the same compound, the “Wt % of strontium complex” value [2, 5] was 9.0 Wt %.

For `CC(C)(C)c1nc(C(C)(C)C)c(C(C)(C)C)[n-]1.CC(C)(C)c1nc(C(C)(C)C)c(C(C)(C)C)[n-]1.COCC(C)OC.[Sr+2]` [Strontium bis(2,4,5-tri-tert-butylimidazolate)(1,2-dimethoxypropane)], the “Molarity of strontium complex” value [1] was 0.04 M, the “Wt % of strontium complex” value [1] was 2.8 Wt % and the “Molarity of strontium complex” value [2] was 0.093 M. The “Wt % of strontium complex” value [2] was 7.3 Wt %.

With `C1=CCOC1.CC(C)(C)c1nc(C(C)(C)C)c(C(C)(C)C)[n-]1.CC(C)(C)c1nc(C(C)(C)C)c(C(C)(C)C)[n-]1.[Sr+2]` [Strontium bis(2,4,5-tri-tert-butylimidazolate)(2,5-dihydrofuran)] the “Molarity of strontium complex” value [1] was 0.37 M, the “Wt % of strontium complex” value [1] was 24 Wt % and the “times more soluble in cyclooctane than parent complex” value [1] was 11-12 times. The TGA residual mass [3] was 8.09%, the “Wt % of strontium complex” value [2] was 38 Wt % and the “times more soluble in mesitylene than parent complex” value [2] was 9-13 times.

With `CC(C)(C)c1nc(C(C)(C)C)c(C(C)(C)C)[n-]1.CC(C)(C)c1nc(C(C)(C)C)c(C(C)(C)C)[n-]1.CC1CCOC1.[Sr+2]` [Strontium bis(2,4,5-tri-tert-butylimidazolate)(3-methyltetrahydrofuran)] the “Molarity of strontium complex” value [1] was 0.05 M, the “Wt % of strontium complex” value [1] was 3.5 Wt % and the “Molarity of strontium complex” value [2] was 0.44 M. For the same compound, the “Wt % of strontium complex” value [2] was 28.8 Wt % and the “times more soluble in mesitylene than parent complex” value [2] was 9-13 times.

With `CC(C)(C)c1nc(C(C)(C)C)c(C(C)(C)C)[n-]1.CC(C)(C)c1nc(C(C)(C)C)c(C(C)(C)C)[n-]1.CN(C)CCN(C)C.[Sr+2]` [Strontium bis(2,4,5-tri-tert-butylimidazolate)(tetramethylethlenediamine)] the “Molarity of strontium complex” value [1, 4] was 0.02 M, the “Wt % of strontium complex” value [1, 4] was 1.8 Wt % and the “Molarity of strontium complex” value [2, 5] was 0.041 M. For the same compound, the “Wt % of strontium complex” value [2, 5] was 3.3 Wt %.

In the case of `C1CCOC1.CC(C)(C)c1nc(C(C)(C)C)c(C(C)(C)C)[n-]1.CC(C)(C)c1nc(C(C)(C)C)c(C(C)(C)C)[n-]1.[Sr+2]` [Strontium bis(2,4,5-tri-tert-butylimidazolatee)(tetrahydrofuran)], the “Molarity of strontium complex” value [1, 4] is reported as 0.35 M, the “Wt % of strontium complex” value [1, 4] is reported as 23.6 Wt % and the “temperature at which weight loss associated with loss of tetrahydrofuran significantly begins” value ([3]; TGA under nitrogen stream, constant heating rate, FIG. 7) is reported as no less than 100 °C. For the same compound, the “Molarity of strontium complex” value [2, 5] was 0.6 M and the “Wt % of strontium complex” value [2, 5] was 28.2 Wt %.
